{
  "source": "patent US8748582B2",
  "about": "“Affinity ligands and methods for protein purification” (Monash University, priority 2009, dated 2014)",
  "origin": "cited, not measured here",
  "molecular_target": "IgG",
  "details": "read-out: dissociation constant for IgG",
  "note": "pKd: −log10 of the molar value.",
  "data": [
    {"substance": "Protein A: bacterial Fc receptor used as immobilised affinity ligand for antibodies", "values": [
      {"measurement": "pKd", "value": 7.00}
    ]}
  ]
}
